Laboratory results published in patent US5597845A, “Substituted alkyldiamine derivatives” (Merrell Pharmaceuticals Inc., priority 1994, dated 1997).

Experiments:
UCll or SKLKB82#3 cells = assay: Phosphatidylinositol (PI) turnover in vitro, UCll or SKLKB82#3 cells, statements not split by receptor; type: cell-based
Method: Tachykinin-mediated phosphatidylinositol (PI, inositol phosphate) accumulation was measured in UCll or SKLKB82#3 cells in the presence and absence of NK1 or NK2 receptor antagonists, respectively. Tissues were incubated in Krebs-Henseleit buffer at 37° C. with 95% O2 --5% CO2 gassing. Tissues were then incubated with fresh buffer containing 100 μCi of myo-[2-^3 H(N)] inositol at 37° C. for 60 min with gentle gassing. After washing twice in 5 ml room temperature buffer containing 10 mM LiCl, tissues were incubated for 30 min at room temperature with a buffer change at 15 min. Buffer was removed and Krebs-Henseleit buffer (containing 40 μg/ml bacitracin, 4 μg/ml each of leupeptin and chymostatin, 0.1% bovine serum albumin and 10 mM each of thiorphan and LiCl) including the test compound is added. After 15 min, SP was added to UCll cells or NKA to SKLKB82#3 cells at various concentrations to start the reaction. After incubation for 60 min at room temperature the reaction was terminated by addition of 930 μl chloroform: methanol (1:2 by volume) to each tube, followed by 310 μl chloroform and 310 μl doubly distilled water. […] The third elution was collected and 1 ml counted in 7 ml scintillation fluid. A 50 μl aliquot of the organic (bottom) phase was removed, dried in a scintillation vial and counted in 7 ml scintillation fluid.
(§1) The ratio of DPM in the aqueous phase aliquot (total inositol phosphates) to the DPM in the 50 μl organic phase aliquot (total [^3 H]inositol incorporated) was calculated for each sample. Data are expressed as a percent of agonist-induced accumulation of [^3 H]-inositol phosphates over basal levels. […] Dose-response graphs are constructed and the ability of the test compounds to inhibit tachykinin-induced phosphatidyinositol turnover determined with the aid of a computer program. Data is expressed as percent stimulation of total inositol phosphate accumulation over basal levels and normalized to the maximum response produced by SP. […]

NK1 receptor [1] = molecular target: T1, NK1 receptor (Cavia porcellus, UniProt P30547); assay: Antagonism of iodinated tachykinin binding: NK1 receptor affinity in guinea pig lungs (125I-Bolton Hunter Lys-3 labeled substance P); conditions: 125I-substance P 0.1 nM, 90 min room temperature, mean of several experiments
T1 construct: evaluated in guinea pig lungs; tissue Keystone Biologicals, Cleveland, Ohio; host or cells: guinea pig lung
Method: (§2) The NK1 receptor affinity of proposed tachykinin antagonists was evaluated in guinea pig lungs (Keystone Biologicals, Cleveland, Ohio) and affinity for the NK2 receptor evaluated in HSKR-1 cells (which are mouse 3T3 fibroblasts expressing the human jejunal NK2 receptor). Tissues or cells were homogenized with a Polytron in 15 volumes of 50 mM Tris-HCl buffer (pH 7.4, 4° C.) and centrifuged. The pellet was resuspended in Tris-HCl buffer and was centrifuged; the pellet was washed twice by resuspension. The final pellet was resuspended at a concentration of 40 mg/ml for tissues and 20 mg/ml for cells in incubation buffer and remained at room temperature for at least 15 min prior to use. Receptor binding was initiated by addition of 250 ul membrane preparation in duplicate to 0.1 nM of the following radioligands: ^125 I-Bolton Hunter Lys-3 labeled substance P and ^125 iodohistidyl-1-neurokinin A; in a final volume of 500 ul of buffer containing 50 mM Tris-HCl (pH 7.4 at room temperature), 0.1% bovine serum albumin, 2 mM MnCl2, 40 ug/ml bacitracin, 4 μg/ml leupeptin and chymostatin, 1 μM thiorphan and various doses of the putative tachykinin antagonists. Incubations were performed at room temperature for 90 min (NK1 receptor assays) or 2 hr (NK2 receptor assay); binding was terminated by addition of 50 mM Tris-HCl buffer (pH 7.4, 4° C.) and filtration under vacuum through GF/B filters presoaked with 0.1% polyethyleneimine (NK, receptor assays) or 0.5% bovine serum albumin (NK2 receptor assay). Filter bound radioactivity was quantitated in a gamma counter. Nonspecific binding was defined as binding in the presence of 1 μM substance P or neurokinin A. Specific binding was calculated by subtracting nonspecific binding from total binding. Competition of iodinated SP or NKA binding by test compounds or standards was expressed as a percentage of this maximum competition. IC50 values (concentration required to inhibit 50% of receptor binding) were generated for each of the test compounds by nonlinear regression using an iterative curve fitting program (GraphPAD Inplot, San Diego, Calif.).
(§3) IC50 values for some of the compounds of the present invention are found in Table 1 and represent the mean of several experiments.

NK1 receptor [2] = molecular target: T2, NK1 receptor (Homo sapiens, UniProt P25103); assay: Antagonism of tachykinin (SP)-induced phosphatidylinositol (PI) turnover in vitro, UCll cells; type: cell-based; conditions: SP agonist, 3 experiments
T2 construct: Receptor source for NK1 receptor is UCll cells; endogenous in cells; host or cells: UC11 cells (printed UCll)
Method: (§4) Tachykinin-mediated phosphatidylinositol (PI, inositol phosphate) accumulation was measured in UCll or SKLKB82#3 cells in the presence and absence of NK1 or NK2 receptor antagonists, respectively. Tissues were incubated in Krebs-Henseleit buffer at 37° C. with 95% O2 --5% CO2 gassing. Tissues were then incubated with fresh buffer containing 100 μCi of myo-[2-^3 H(N)] inositol at 37° C. for 60 min with gentle gassing. After washing twice in 5 ml room temperature buffer containing 10 mM LiCl, tissues were incubated for 30 min at room temperature with a buffer change at 15 min. […] The third elution was collected and 1 ml counted in 7 ml scintillation fluid. A 50 μl aliquot of the organic (bottom) phase was removed, dried in a scintillation vial and counted in 7 ml scintillation fluid.
as §1, with “program.” for “program. Data is expressed as percent stimulation of total inositol phosphate accumulation over basal levels and normalized to the maximum response produced by SP.”

NK2 receptor = molecular target: T3, NK2 receptor (Bos taurus, UniProt P05363); assay: Antagonism of tachykinin (NKA)-induced phosphatidylinositol (PI) turnover in vitro, SKLKB82#3 cells; type: cell-based; conditions: NKA agonist, 3 experiments
T3 construct: expressed in transfected cells; host or cells: SKLKB82#3 cells (murine B82 fibroblasts, own knowledge)
T3 sequence (P05363 1-384): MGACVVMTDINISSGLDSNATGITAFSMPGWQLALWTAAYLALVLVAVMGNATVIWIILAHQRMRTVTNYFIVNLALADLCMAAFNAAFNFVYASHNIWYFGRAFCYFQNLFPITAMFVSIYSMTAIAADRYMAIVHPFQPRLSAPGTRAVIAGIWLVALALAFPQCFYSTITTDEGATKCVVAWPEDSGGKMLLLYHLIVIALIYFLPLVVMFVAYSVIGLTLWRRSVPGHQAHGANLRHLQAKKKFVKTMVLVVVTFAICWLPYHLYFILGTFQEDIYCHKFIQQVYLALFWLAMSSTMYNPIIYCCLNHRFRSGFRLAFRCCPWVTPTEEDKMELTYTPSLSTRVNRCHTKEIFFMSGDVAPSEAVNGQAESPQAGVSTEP
Method: as §4
as §1, with “program.” for “program. Data is expressed as percent stimulation of total inositol phosphate accumulation over basal levels and normalized to the maximum response produced by SP.”

[3] = molecular target: T4, human jejunal NK2 receptor (Homo sapiens, UniProt P21452); assay: Antagonism of iodinated tachykinin binding: NK2 receptor affinity in HSKR-1 cells (125 iodohistidyl-1-neurokinin A); conditions: HSKR-1 cells (mouse 3T3 fibroblasts expressing human jejunal NK2 receptor); 125I-neurokinin A 0.1 nM; 2 hr room temperature; mean of several experiments
T4 construct: expressed in transfected cells; host or cells: HSKR-1 cells (mouse 3T3 fibroblasts)
T4 sequence (P21452 1-398): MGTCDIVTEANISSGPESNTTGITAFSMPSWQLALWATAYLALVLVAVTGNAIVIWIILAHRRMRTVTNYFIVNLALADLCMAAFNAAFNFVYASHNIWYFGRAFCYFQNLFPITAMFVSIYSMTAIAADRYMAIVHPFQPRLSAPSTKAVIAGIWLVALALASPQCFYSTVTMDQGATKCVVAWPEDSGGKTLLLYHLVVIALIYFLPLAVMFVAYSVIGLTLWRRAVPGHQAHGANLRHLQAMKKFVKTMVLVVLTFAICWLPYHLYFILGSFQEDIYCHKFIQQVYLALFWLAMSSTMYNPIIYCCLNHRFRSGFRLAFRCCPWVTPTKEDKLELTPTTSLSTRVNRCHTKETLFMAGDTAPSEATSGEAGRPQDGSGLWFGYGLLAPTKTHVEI
Method: as §2, §3

T2 sequence (P25103 whole entry): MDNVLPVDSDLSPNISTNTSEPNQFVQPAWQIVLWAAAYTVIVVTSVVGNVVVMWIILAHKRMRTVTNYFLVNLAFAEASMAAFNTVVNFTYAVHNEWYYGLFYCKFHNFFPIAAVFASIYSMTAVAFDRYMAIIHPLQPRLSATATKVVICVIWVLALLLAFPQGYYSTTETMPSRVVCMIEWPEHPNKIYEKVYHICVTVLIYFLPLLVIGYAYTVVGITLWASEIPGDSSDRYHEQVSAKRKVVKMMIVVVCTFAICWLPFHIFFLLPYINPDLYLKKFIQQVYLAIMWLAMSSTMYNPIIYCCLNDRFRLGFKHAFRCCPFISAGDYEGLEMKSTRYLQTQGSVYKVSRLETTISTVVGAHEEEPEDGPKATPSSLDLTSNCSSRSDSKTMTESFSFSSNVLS
T1 sequence (P30547 whole entry): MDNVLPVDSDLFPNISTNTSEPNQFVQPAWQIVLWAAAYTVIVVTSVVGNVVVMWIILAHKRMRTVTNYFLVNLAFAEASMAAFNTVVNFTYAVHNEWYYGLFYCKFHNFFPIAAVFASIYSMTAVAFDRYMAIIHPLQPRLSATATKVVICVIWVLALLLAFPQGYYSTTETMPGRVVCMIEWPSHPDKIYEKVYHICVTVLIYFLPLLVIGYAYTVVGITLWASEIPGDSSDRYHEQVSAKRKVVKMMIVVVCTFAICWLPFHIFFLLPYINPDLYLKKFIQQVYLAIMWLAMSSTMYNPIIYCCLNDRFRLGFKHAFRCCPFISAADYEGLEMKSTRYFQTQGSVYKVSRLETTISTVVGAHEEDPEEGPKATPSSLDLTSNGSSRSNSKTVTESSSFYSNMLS

**Q.** Which “slope of the lines obtained by a Schild analysis versus one” value (UCll or SKLKB82#3 cells; Schild analysis, 3 experiments) does the source give for `COC(=O)[C@H](Cc1c[nH]c2ccccc12)NCCN[C@@H](Cc1ccc2ccccc2c1)C(=O)N(C)Cc1ccccc1OC` [Compound No. 1] here?
**A.** not significantly different from one (1)

**Q.** And the “PI turnover when administered by itself (agonist activity)” value (UCll or SKLKB82#3 cells; compound alone, no tachykinin agonist)?
**A.** no PI turnover

**Q.** What about the mode of antagonism (UCll or SKLKB82#3 cells; from Schild analysis slope) of the same compound?
**A.** competitive antagonist

**Q.** And the IC50 (NK1 receptor [1])?
**A.** 25.7 nM

**Q.** And the “-slope (Schild analysis), NK1 receptor” value (NK1 receptor [2])?
**A.** 1.28

**Q.** And the “pA2, tachykinin-induced PI turnover, NK1 receptor” value (NK1 receptor [2]; Schild analysis)?
**A.** 7.34

**Q.** And the “-slope (Schild analysis), NK2 receptor” value (NK2 receptor)?
**A.** 1.11

**Q.** What about the “pA2, tachykinin-induced PI turnover, NK2 receptor” value (NK2 receptor; Schild analysis) of the same compound?
**A.** 6.70

**Q.** What about the IC50 [3] of the same compound?
**A.** 609 nM
